Source: paper PMC6753678, “Fueling Open Innovation for Malaria Transmission-Blocking Drugs: Hundreds of Molecules Targeting Early Parasite Mosquito Stages” (Frontiers in Microbiology, 2019)

Experiments:
[1] = system: P. falciparum female gametocytes; test: P. falciparum female gametogenesis assay (Pf FGAA); details: 1: YES; 0: NO
HepG2 cells = details: HepG2 value reported with Pf FGAA screen; ref Miguel-Blanco et al 2017; cited from earlier work
[2] = system: P. falciparum female gametocytes; set-up: method as in Miguel-Blanco et al 2017; details: TCAMS library screen; ref Miguel-Blanco et al 2017; read-out: Pf FGAA IC50; cited from earlier work

| SMILES | Is compound selective in assay? Pf FGAA active? [1] | HepG2 cytoxicity (Pf FGAA screen) (HepG2 cells) | IC50 [2] |
| --- | --- | --- | --- |
| COc1c(CNCCCCCCNCc2cc(Cl)c3ccccc3c2OC)cc(Cl)c2ccccc12.CS(=O)(=O)O [TCMDC-137958] | 0 (0: NO) | 4.62 µM | 1.18 µM |
| COc1ccc(CCNCCCCNCCc2ccc(OC)c3ccccc23)c2ccccc12.CS(=O)(=O)O [TCMDC-137961] | 0 (0: NO) | 2.14 µM | 0.48 µM |
| CCCCOc1c(CNCCCCCCNCc2ccc3ccccc3c2OCCCC)ccc2ccccc12.CS(=O)(=O)O [TCMDC-137975] | 0 (0: NO) | 2.21 µM | 1.49 µM |
| COc1ccccc1-c1nc2c(ccc3nc(N)nc(N)c32)[nH]1 [TCMDC-137976] | 0 (0: NO) | 2.87 µM | 1.13 µM |
| CCCN(CCC)CCCN(CCCN(CCC)CCC)c1cc(C)nc(Nc2ccc3cc(Br)ccc3c2)n1.Cl [TCMDC-138006] | 0 (0: NO) | 3.43 µM | 0.99 µM |
| Cl.Clc1ccc(CNCCCCCCCNCc2ccc(Cl)c(Cl)c2)cc1Cl [TCMDC-138075] | 0 (0: NO) | 4.57 µM | 0.7 µM |
| COc1cc2nc(N3CCC(CNC(=O)c4ccc(-c5ccc(-c6noc(C)n6)cc5C)cc4)CC3)nc(N)c2cc1OC [TCMDC-138155] | 0 (0: NO) | 7.62 µM | 1.68 µM |
| COc1ccc(N2CCN(CCCCNCc3ccc(NC(=O)c4cc(Cl)cc(Cl)c4)cc3)CC2)c(OC)c1 [TCMDC-138226] | 0 (0: NO) | 4.42 µM | 3.11 µM |
| COc1cc2nc(Nc3ccc4c(ccn4Cc4ccccc4)c3)nc(Nc3ccc4c(ccn4Cc4ccccc4)c3)c2cc1OC [TCMDC-138237] | 0 (0: NO) | 14.13 µM | 1.58 µM |
| CN(C)CCNCc1ccc(-c2ccc3c(Nc4ccc(Cl)cc4F)ccnc3c2)o1 [TCMDC-138391] | 0 (0: NO) | 0.89 µM | 1.71 µM |
| Fc1cc(Cl)ccc1Nc1ccnc2cc(-c3ccc(CN4CCOCC4)o3)ccc12 [TCMDC-138393] | 0 (0: NO) | 5.62 µM | 0.64 µM |
| Cl.Fc1cc(Cl)ccc1Nc1ccnc2cc(-c3ccc(CN4CCNCC4)o3)ccc12 [TCMDC-138394] | 0 (0: NO) | 12.05 µM | 1.91 µM |
| CN(C)CCN(C)Cc1ccc(-c2ccc3c(Nc4ccc(Oc5ccccn5)cc4)ccnc3c2)o1 [TCMDC-138426] | 0 (0: NO) | 5.37 µM | 2.05 µM |
| CN(/N=C/C=C/c1ccc(Cl)cc1)c1nc(NCCc2ccc(O)cc2)nc(N2CCNCC2)n1 [TCMDC-138546] | 0 (0: NO) | 13.18 µM | 1.96 µM |
